Assay [1] concerns mice. Description: Morris water maze (acquisition training and probe trial), long-term injection study. Format: in vivo. On the procedure:
A six-week study was conducted in which apigenin was administered by injection to mice at two different doses in conjunction with or without daily voluntary exercise (running). Behavioral testing was administered after 30 days of injections using the Morris water maze and object recognition test. Apigenin was dissolved in [10:90] Tween 80: 0.9% NaCl. All compounds were purchased from commercial sources. Aliquots of Tween 80: 0.9% NaCl solutions were used for testing in the in vivo model. Sixty-four mice (age seven wks) were divided into four test groups (sixteen per group) and received either: Injections were administered intraperitoneally (i.p.) for forty-two days total. In addition to test injections, daily i.p. injections of 5-bromo-2-deoxyuridine (BrdU) [10 mg/ml] were administered for the first eight days at a dose of 50 mg/kg. Within each test group, eight mice were randomly selected to receive running exercise. These thirty-two mice (eight mice per injection group) were transferred daily (on Days 1-40 of the study) from their normal static housing to an automated voluntary running wheel cage for two hours a day. Non-running mice remained in their static cages throughout the study. On Day 31, all mice began acquisition training on the Morris water maze immediately following their i.p. injection. See, e.g., Morris, Developments of a water-maze procedure for studying spatial learning in the rat, J. Neurosci. Methods, 11(1) (1984), hereby incorporated herein by reference. Mice were trained for nine consecutive days, receiving two trials a day using a hidden platform paradigm. The platform was located in the northwest (NW) quadrant of the water maze. To measure the effect of apigenin (with or without exercise) on learning, latency to platform was recorded for each trial. After daily training on the water maze, non-running mice were returned to their normal static housing while running mice were placed into their running wheel cages for two hours. On Day 9 of the water maze training, the mice received a probe trial 4 hours after the last training. During the probe trial the platform was removed and retention of memory of the target NW quadrant was recorded.

The subject of assay [2] is mice. Description: Object recognition, visual paired comparison task (VPC). Format: in vivo. As for the experimental part:
Each mouse receiving either apigenin 25 mg/kg or Tween 80:0.9% NaCl (control) solutions was administered an i.p. injection of either drug or control for 7 days, after which they were trained and tested on visual paired comparison task (VPC) behavioral assay. The paradigm consisted of habituation to the experimental room for two hours prior to the experiment on Days 1 and 2. After habituation on Day 1, mice were given a five minute exposure to the testing chamber, followed by a thirty second exploration of two identical objects (familiarization training). Twenty-four hours after the familiarization training, mice were once again re-habituated to the room and testing chamber for two hours and one minute, respectively. After re-habituation mice were placed back into the testing chamber and allowed to explore a familiar and novel object for five minutes. Object exploration times were measured for both familiar and novel objects on Days 1 and 2. Both objects were identical, but the “novel” object was in a different location.

The test system of a further assay is dentate gyrus. The assay is described as follows: 10-day oral (food) and i.p. study, BrdU/DAB quantification of dividing cells. The note with it: 10 days; i.p. injection (apigenin 25 mg/kg, epicatechin 20 mg/kg) or food 250 ppm and 500 ppm; vs controls. The class given is in vivo, mice. As for the experimental part: A 10-day food study was conducted in which the effects of oral administration of apigenin were compared with apigenin effects upon injection. Food pellets containing epicatechin were tested alongside apigenin. Animals were fed food containing apigenin, epicatechin or control pellets in two doses: 250 ppm and 500 ppm. Aliquots of apigenin and epicatechin were dissolved in [10:90] Tween 80: 0.9% NaCl. Aliquots of Tween 80: 0.9% NaCl were used as controls. Forty mice (age seven weeks) were divided into three test injection groups (n=five per group) and five test food groups (n=five per group) and received: Test injections were administered i.p. for ten days total. Test food was distributed on Day 1 and mice were allowed to eat freely for the duration of the ten days. Daily i.p. injections of BrdU [10 mg/ml] were administered to all animals the first eight days of this study at a dose of 50 mg/kg. At the end of ten days, all mice were perfused using 4% paraformaldehyde and their brain tissue was extracted. Brain tissue was sectioned and stained for BrdU/DAB quantification for dividing cells.

In the next assay the test system is AKT. The assay is described as follows: Western blot of phosphorylated signaling mediators. The class given is cell-based. Particulars: 5 mM apigenin; by six hours; adult neural progenitor cells starved two hours; normalized to unphosphorylated form. As for the experimental part:
(§1) Adult neural progenitor cells were grown in proliferating conditions (N2 containing FGF2) in six-well plates for at least twenty-four hours. Before collecting cell lysates, the media was removed and replaced with DMEM/F12 for two hours (DMEM/F12 is defined media which lacks insulin and FGF2, two factors known to trigger various cell signaling pathways). In this key “starvation” step, the activation of various downstream mediators returned to steady-state levels. Cells were starved for two hours and the time zero data were collected. One of the following was added and the lysates collected at various time-points: (1) N2 only or (−) DMSO (negative control); (2) (+) DMSO (also a negative control); (3) apigenin; or (4) RA+FSK (positive control). Two time-course experiments were then carried out. The first was an early time-course to measure the acute effects of apigenin at zero minutes, ten minutes, thirty minutes, two hours, six hours, and twenty-four hours. The second experiment was a late time-course to measure long-term effects of apigenin at zero, one, two, three, and four days; the results of this experiment are not discussed here. Cell lysates were then loaded and transferred to Western Blots and the membranes hybridized with antibodies against the phosphorylated and unphosphorylated forms of each protein. The data results with the unphosphorylated form of the protein are not discussed here. The data discussed with respect to the phosphorylated protein are representative of at least three independent experiments and are normalized to the unphosphylated forms (internal control).

Another assay deals with CREB. The assay is described as follows: Western blot of phosphorylated signaling mediators. The class given is cell-based. The note with it: adult neural progenitor cells; negative controls show the same results. As for the experimental part:
as §1
(In general: A western blot detects proteins with antibodies after separation by electrophoresis.)

The test system of a further assay is ERKs. The assay is described as follows: Western blot of phosphorylated signaling mediators. The class given is cell-based. Particulars: adult neural progenitor cells; negative controls show the same results. On the procedure:
as §1

Another assay has as its system GSK3b. The assay is described as follows: Western blot of phosphorylated signaling mediators. Format: cell-based. Particulars: adult neural progenitor cells; negative controls show the same results. On the procedure: as §1
Another assay concerns b-catenin. Description: Western blot of phosphorylated signaling mediators. The class given is cell-based. Particulars: adult neural progenitor cells; negative controls show the same results. As for the experimental part:
as §1

From patent publication US20080227829A1, “Neurogenic compounds” (priority 2007, published 2008) come the findings set out here.

“Also recorded” adds a separate entry of the source.

Consider `O=c1cc(-c2ccc(O)cc2)oc2cc(O)cc(O)c12` [apigenin], for which the “probe trial: frequency into target quadrant” value is “trend toward significance” in the assay with mice [1] (12.5 mg/kg i.p., non-runners, p<0.06); “significant preference for the target quadrant” in the assay on mice [1] (12.5 mg/kg i.p., runners, p<0.001); “significant preference for the target quadrant” in the assay with mice [1] (25 mg/kg i.p., non-runners, p<0.05); “strong preference for entering the target quadrant more frequently than other quadrants, although this is not statistically significant” in the assay with mice [1] (25 mg/kg i.p., runners, p<0.06). The “latency to platform (acquisition phase)” value is given as “No significant differences” with mice [1] (12.5 mg/kg i.p., non-runners, vs control); “significantly shorter latencies” in the assay on mice [1] (12.5 mg/kg i.p., runners, vs control runners and control non-runners, p<0.05); “significantly different from the control runners” in the assay on mice [1] (25 mg/kg i.p., non-runners, vs control runners, p<0.05); “significantly shorter latencies” in the assay on mice [1] (25 mg/kg i.p., runners, vs control runners and control non-runners, p<0.05). In the assay with mice [1] (12.5 and 25 mg/kg i.p., runners and non-runners), the “probe trial: total duration of time spent in the quadrants” value is “no significant differences among the groups”. Further, in the assay with mice [1] (apigenin treated mice, runners and non-runners), the “probe trial: frequency in quadrants (FIG. 1 legend)” value was “entered the target quadrant more frequently than all other quadrants”. Also, the “learning (summary of water maze)” value with mice [1] (with or without exercise) is given as “increases learning with or without exercise”. The “difference between injection groups during novel testing” value in the assay with mice [2] (25 mg/kg i.p. for 7 days vs Tween 80:0.9% NaCl control) is on record as “No significant differences”. For the same compound, in the assay with mice [2] (25 mg/kg i.p. for 7 days, T-test t=0.0008), the “preference for the novel object (object exploration time)” value is listed as “significant preference for the novel object”. Further, the “number of dividing cells (BrdU+) in the dentate gyrus” value in the assay with dentate gyrus is listed as “significant increase in the number of dividing cells; also recorded: increased BrdU labeling”. For the same compound, the “phosphorylation of AKT (pAKT)” value in the assay on AKT is on record as “increased phosphorylation of AKT”. Besides, the “phosphorylation of CREB” value with CREB is recorded as “non-specific effects”. Moreover, the “phosphorylation of ERKs” value with ERKs is “non-specific effects”. Further, the “phosphorylation of GSK3b” value in the assay with GSK3b is “non-specific effects”. Moreover, the phosphorylation of b-catenin entry with b-catenin is “non-specific effects”.
